# Assay results published in patent publication US10458988B2, “Biotinylated luminescent probe” (priority 2017, dated 2019).
# How the values were obtained:
# [1] = test system: U87-luc cells; experiment: Bioluminescence imaging of luciferase-transfected brain cancer cells in vitro; format: cell-based; conditions: B-YL 100 μg/mL, L-15 medium with MgCl2 5 mM
# Method: (§1) Triplicate wells were plated with increasing numbers of either U87 cells without luciferase (a) or with luciferase (b). In each plate: Row 1, wells 1-3, no cells; wells 4-6, 1,875 cells per well. Row 2, wells 1-3, 3,750 cells per well; wells 4-6, 7,500 cells per well. Row 3, wells 1-3, 15,000 cells per well; wells 4-6, 30,000 cells per well. Row 4, wells 1-3, 60,000 cells per well. Incubation buffer, Leibovitz's L-15 medium with MgCl2 (5 mM). Each well was incubated with B-YL (100 μg/mL). Plates were imaged using an IVIS 200 In vivo Imaging System. Escalating luminescence was observed only in wells containing luciferase-expressing cells (b).
# (§2) The B-YL substrate can be incubated with the brain cancer cell line U87-luc, which was derived from the parental brain cancer cell line U87 after stable transfection with a luciferase gene. […] B-YL clearly adsorbed across the cell membrane and was oxidized by luciferase. Therefore, B-YL can be used for the detection of the cancer cells by bioluminescence.
# (§3) The EGF-B-SA-B-YL complex can be tested for the ability to target and image brain cancer cell lines that overexpress the biomarker EGFR using bioluminescence in vitro. U87 (gray hatch bars) and U87-luc (black bars) cells can be treated with free B-YL (150 μg/m L), untargeted B-SA-B-YL complex (150 μg/mL) or EGFR-targeted EGF-B-SA-B-YL complex (50-150 µg/mL). Bioluminescence were detected immediately. […]
# [2] = test system: U87 cells; experiment: Bioluminescence imaging of parental brain cancer cells without luciferase in vitro; format: cell-based
# Method: as §1, §2, §3
# [3] = molecular target: T1, firefly luciferase (Photinus pyralis, UniProt P08659); experiment: Bioluminescence spectrum of probe B-YL with firefly luciferase; format: biochemical
# T1 construct: purchased Sigma
# T1 sequence (P08659 whole entry): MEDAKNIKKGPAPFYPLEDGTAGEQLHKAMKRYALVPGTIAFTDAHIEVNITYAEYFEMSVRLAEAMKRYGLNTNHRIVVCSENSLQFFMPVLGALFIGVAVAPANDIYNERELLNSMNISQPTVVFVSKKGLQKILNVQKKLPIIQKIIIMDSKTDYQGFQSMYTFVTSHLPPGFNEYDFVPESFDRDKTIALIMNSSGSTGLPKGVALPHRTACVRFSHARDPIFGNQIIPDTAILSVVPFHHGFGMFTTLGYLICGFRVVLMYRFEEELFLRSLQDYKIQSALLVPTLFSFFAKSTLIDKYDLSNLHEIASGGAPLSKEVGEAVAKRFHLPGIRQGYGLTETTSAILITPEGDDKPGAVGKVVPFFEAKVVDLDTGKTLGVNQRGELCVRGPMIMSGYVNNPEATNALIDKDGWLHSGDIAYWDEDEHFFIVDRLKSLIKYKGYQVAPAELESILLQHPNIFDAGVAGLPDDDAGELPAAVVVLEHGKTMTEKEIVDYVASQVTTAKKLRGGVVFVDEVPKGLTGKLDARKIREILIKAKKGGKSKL
# Method: After the synthesis of the biotinylated probe, B-YL, the probe can be evaluated with a commercially available firefly luciferase. […] The mechanism for generating bioluminescence is shown in Scheme 2.
# In a well of 96 quartz plate (500 μl), HEPES buffer (30 mM) solution (400 μl, pH=7.7) containing MgSO4 (5.0 mM), ATP (2.6 mM), DTT (3.5 mM), CoA (1.5 mM) and commercially available firefly luciferase (40 μg/ml), was prepared. The probe B-YL was then added and mixed to a final concentration (32 μM). Bioluminescence spectrum of B-YL was then taken immediately with instrument SynergyMx (BioTek, VT).
substance,measurement,setting,value
"6-(3-N—{N-[5-(Hexahydro-2-oxo-1H-thieno[3,4-d]imidazol-4-yl)-1-oxopentyl]-, [3aS-(3aα,4β, 6aα)]}-aminoethyl-poly(ethylene glycol)21-oxyethyl-1H-1,2,3-triazol-5-yl-methylamino-oxomethyl-amino)-2-benzothiazolyl]-4,5-dihydro-,(4S)-4-thiazolecarboxylic acid [B-YL]",number of U87-luc cells at which bioluminescence signal was detected (FIG. 1b),[1],"at least 7,500 cells per well"
same,bioluminescence activity in parental U87 cells (FIG. 1a),"[2]; B-YL 100 μg/mL, 0-60,000 cells per well, L-15 medium with MgCl2 5 mM",did not reveal bioluminescence activity regardless of the number of cells
same,conversion to bioluminescence photons by U87 cells (FIG. 2),[2]; U87 cells without luciferase,Neither of the complexes (B-SA-B-YL or EGF-B-SA-B-YL) nor free B-YL were converted to bioluminescence photons
same,substrate of firefly luciferase,[3]; commercial firefly luciferase,found to be a substrate of firefly luciferase
same,bioluminescence maximum emission,"[3]; commercial firefly luciferase 40 μg/ml, B-YL 32 μM, HEPES buffer pH 7.7",590 nm
